This is an account of results in US8865741B2, “Aminoindane compounds and use thereof in treating pain” (Asana Biosciences, LLC, priority 2011, dated 2014).

In this assay the test system is sodium channel in hTRPV1-N1E115 cells. In words: FLIPR membrane potential assay of sodium channel response in hTRPV1-N1E115 cells, with (47° C.) or without (25° C.) heat activation of hTRPV1. Type of assay: cell-based. Conditions: for hTRPV1-N1E Nav 0.1 mM (% inhibition) 25° C. / hTRPV1-N1E Nav 1 mM (% inhibition) 25° C.: 25° C. (no heat activation of hTRPV1); for hTRPV1-N1E Nav 0.1 mM (% inhibition) 47° C. / hTRPV1-N1E Nav 1 mM (% inhibition) 47° C.: 47° C. (heat activation of hTRPV1); for IC50: 47° C., class symbols, read-out: hTRPV1-N1E IC50 (μM) 47° C. The text has this:
In one embodiment, a modified FLIPR® (Fluorometric Imaging Plate Reader) based assay system was developed which is capable of discriminating between non-specific versus hTRPV1-mediated entry of test compounds. Advantageously, the assay system utilizes heat activated opening of hTRPV1 channels followed by an assessment of internal sodium channel block. The assay allows a permanently charged compound to selectively enter through opened hTRPV1 channels and that compound's potency in inhibiting sodium channels from the cytoplasm side of the same cell can be assessed and quantified.
The assay is readily performed in multi-well assay plates into which cells in growth media are added and incubated under conditions which permit the formation of a confluent monolayer over a period of hours prior to the start of the assay. Conventional culture media and conditions may be utilized. Duplicate cell assay plates are prepared for each experiment.
The spent media from the cell seeded plates is removed on the day of the assay and replaced with Membrane potential Dye-Blue (Molecular Devices). The dye was prepared in assay buffer following manufacturer's instructions. The dye-loaded plate is incubated at room temperature (about 25° C.) for about 30 minutes in order to pre-load the cells with dye. Optionally, the cells may be loaded with the dye simultaneously with adding the test compounds.
The test compounds are diluted in the Assay Buffer and added to each well of a specific 384-well ‘compound plate’, which serves as a source plate for compound addition using the FLIPR® platform. The concentration of compounds in the compound-plate was adjusted to achieve the desired final concentration when added to the cells in the ‘cell-plate’. After completion of the dye incubation period, the dye loaded cell-plates and the compound source plates are inserted into the FLIPR® Tetra™ device with a 384 FLIPR® tip box (Molecular Devices, Inc.) according to manufacturer's instructions. The compounds are robotically added to the dye loaded cell-plates using software integral to the FLIPR® Tetra™ instrument.
Immediately following compound addition, hTRPV1 is activated, in one of the duplicate cell plates, by heating. Specifically, entire multi-well plate containing the compound-cells mixture is incubated at 47° C. for 10 minutes, after which they are returned to room temperature (about 25° C.) for a further 30 minutes. Heat activation of hTRPV1 was omitted from the replicate cell plate which was simply maintained at room temperature for the entire 40 minutes.
A membrane potential response is elicited in the dye- and compound-loaded cells by the addition of veratridine which is a known sodium channel ‘agonist’. As illustrated in an example herein, an agonist plate containing veratridine (Sigma) is prepared in advance and is inserted into suitable devices such as, e.g., the FLIPR® TETRA® device for a “2nd addition” as instructed by the manufacturer. The concentration of veratridine in the ‘agonist plate’ was adjusted to achieve a final concentration of 100 μM when added to the cells in the cell-plate. Final concentrations of veratridine greater or lesser than 100 μM may also be used but the signal measured by the FLIPR®^Tetra™ device or another suitable device may vary accordingly.
The exposure of the cells in the cell-plate to veratridine induces sodium channels in the cells to open and the resulting ion flux produces a membrane potential depolarization that is detected as a fluorescence signal by the FLIPR® ^Tetra™ Device. The activity of test compounds is determined by their ability to attenuate the veratridine-induced fluorescence signal, the most promising compounds are those that show an enhanced activity in the heat-activated cell plate over the non-heat-activated cell plate. […]

SMILES strings stand for the structures.

By IC50 is commonly meant the point on the concentration scale where inhibition reaches its midpoint. Consider `CC[N+]1(CC)CCCCC1CCN(c1ccc(F)cc1)C1Cc2ccccc2C1.[I-]` (stereo not shown) [Example 18, 1,1-diethyl-2-[2-((4-fluorophenyl)(indan-2-yl)amino)ethyl]piperidinium iodide], for which the “hTRPV1-N1E Nav 0.1 mM (% inhibition) 25° C.” value worked out at 0%, the “hTRPV1-N1E Nav 0.1 mM (% inhibition) 47° C.” value is reported as 86.9 (N = 3) %, the “hTRPV1-N1E Nav 1 mM (% inhibition) 25° C.” value is 0 (N = 3) % and the “hTRPV1-N1E Nav 1 mM (% inhibition) 47° C.” value is reported as 38.2 (N = 3) %. Further, the IC50 lay within 10 to 100 µM.
The corresponding values for `Cc1cccc(N(CCC2CCCC[N+]2(C)C)C2Cc3ccccc3C2)c1.[I-]` (stereo not shown) [Example 19, 1,1-Dimethyl-2-[2-((indan-2-yl)(3-methylphenyl)amino)ethyl]piperidinium iodide] are 0%, 87.9%, “Insoluble”, “Insoluble” and 10 to 100 µM.
Regarding `[Br-].c1ccc(N(CCC2CCCC[N+]23CCCC3)C2Cc3ccccc3C2)cc1` (stereo not shown) [Example 20, 6-[2-((Indan-2-yl)(phenyl)amino)ethyl]-5-azoniaspiro[4.5]decane bromide], the “hTRPV1-N1E Nav 0.1 mM (% inhibition) 25° C.” value was determined as 11.2%, the “hTRPV1-N1E Nav 0.1 mM (% inhibition) 47° C.” value was 94.8 (N = 3) %, the “hTRPV1-N1E Nav 1 mM (% inhibition) 25° C.” value was 0 (N = 3) % and the “hTRPV1-N1E Nav 1 mM (% inhibition) 47° C.” value is reported as 48.9 (N = 3) %. Also, the IC50 was in the range of 10 to 100 µM.
As to `CC[N+]1(CC)CCCCC1CCN(c1cccc(C)c1)C1Cc2ccccc2C1.[I-]` (stereo not shown) [Example 21, 1,1-Diethyl-2-[2-((indan-2-yl)(3-methylphenyl)amino)ethyl]piperidinium iodide], the “hTRPV1-N1E Nav 0.1 mM (% inhibition) 25° C.” value is given as 44.7%, the “hTRPV1-N1E Nav 0.1 mM (% inhibition) 47° C.” value was 80.2 (N = 3) %, the “hTRPV1-N1E Nav 1 mM (% inhibition) 25° C.” value was 58.2 (N = 3) % and the “hTRPV1-N1E Nav 1 mM (% inhibition) 47° C.” value was 64.3 (N = 3) %. The half-inhibitory concentration (IC50) lay within 10 to 100 µM.
The like results for `Cc1ccc(N(CCC2CCCC[N+]2(C)C)C2Cc3ccccc3C2)cc1.[I-]` (stereo not shown) [Example 22, 1,1-Dimethyl-2-[2-((indan-2-yl)(4-methylphenyl)amino)ethyl]piperidinium iodide] were, in that order, 8.7%, 62.7 (N = 2) %, 48 (N = 2) %, 69.9 (N = 2) % and 10 to 100 µM.
The like results for `CC[N+]1(CC)CCCCC1CCN(c1ccccc1C)C1Cc2ccccc2C1.[I-]` (stereo not shown) [Example 25, 1,1-Diethyl-2-[2-((indan-2-yl)(2-methylphenyl)amino)ethyl]piperidinium iodide] were, in that order, 26.4%, 89.6 (N = 2) %, “Insoluble”, “Insoluble” and 1 to 10 µM.
The like results for `CC[N+]1(CC)CCCCC1CCCN(c1ccccc1)C1Cc2ccccc2C1.[I-]` (stereo not shown) [Example 26, 1,1-Diethyl-2-[3-((indan-2-yl)(phenyl)amino)propyl]piperidinium iodide] were, in that order, 44.6%, 64.7 (N = 2) %, “Insoluble”, “Insoluble” and 10 to 100 µM.
Consider `Cc1ccc(N(CC2CCCC[N+]2(C)C)C2Cc3ccccc3C2)cc1.[I-]` (stereo not shown) [Example 27, 1,1-Dimethyl-2-[((indan-2-yl)(4-methylphenyl)amino)methyl]piperidinium iodide], for which the “hTRPV1-N1E Nav 0.1 mM (% inhibition) 25° C.” value is recorded as 68.1%, the “hTRPV1-N1E Nav 0.1 mM (% inhibition) 47° C.” value is given as 81.3 (N = 2) %, the “hTRPV1-N1E Nav 1 mM (% inhibition) 25° C.” value is recorded as 61.4 (N = 2) % and the “hTRPV1-N1E Nav 1 mM (% inhibition) 47° C.” value is 71.9 (N = 2) %.
As to `C[N+]1(C)CCCCC1CN(c1ccc(F)cc1)C1Cc2ccccc2C1.[I-]` (stereo not shown) [Example 28, 1,1-Dimethyl-2-[((4-fluorophenyl)(indan-2-yl)amino)methyl]piperidinium iodide], the “hTRPV1-N1E Nav 0.1 mM (% inhibition) 25° C.” value is on record as 30.2%, the “hTRPV1-N1E Nav 0.1 mM (% inhibition) 47° C.” value is recorded as 43.7 (N = 2) %, the “hTRPV1-N1E Nav 1 mM (% inhibition) 25° C.” value is given as 61.8 (N = 2) % and the “hTRPV1-N1E Nav 1 mM (% inhibition) 47° C.” value was 86.6 (N = 2) %.
The like results for `Cc1cccc(N(CC2CCCC[N+]2(C)C)C2Cc3ccccc3C2)c1.[I-]` (stereo not shown) [Example 29, 1,1-Dimethyl-2-[((indan-2-yl)(3-methylphenyl)amino)methyl]piperidinium iodide] were, in that order, 68.9%, 82.9 (N = 2) %, 64.6 (N = 2) % and 75.3 (N = 2) %.
The like results for `CC[N+]1(CC)CCCCC1CN(c1ccc(C)cc1)C1Cc2ccccc2C1.[I-]` (stereo not shown) [Example 30, 1,1-Diethyl-2-[((indan-2-yl)(4-methylphenyl)amino)methyl]piperidinium iodide] were, in that order, 59.4%, 97.2 (N = 2) %, “Insoluble” and “Insoluble”.
The like results for `C[N+]1(C)CCCCC1CN(c1cccc(F)c1)C1Cc2ccccc2C1.[I-]` (stereo not shown) [Example 31, 1,1-Dimethyl-2-[((3-fluorophenyl)(indan-2-yl)amino)methyl]piperidinium iodide] were, in that order, 3.8%, 62.6 (N = 2) %, “Insoluble” and “Insoluble”.
With `C[N+]1(C)CCCC[C@H]1CN(c1ccccc1)C1Cc2ccccc2C1` [Example 32, (S)-1,1-Dimethyl-2-[((indan-2-yl)(phenyl)amino)methyl]piperidinium iodide], the 50% inhibitory concentration (IC50) fell in the range of 10 to 100 µM.
In the case of `C[N+]1(C)CCCC[C@@H]1CN(c1ccccc1)C1Cc2ccccc2C1` [Example 33, (R)-1,1-Dimethyl-2-[((indan-2-yl)(phenyl)amino)methyl]piperidinium iodide], the concentration for half-maximal inhibition (IC50) lay in the range of 10 to 100 µM.
The same measure, in the same setting: next, `Cc1ccccc1N(CC[C@@H]1CCCC[N+]1(C)C)C1Cc2ccccc2C1` [Example 34, (S)-1,1-Dimethyl-2-[2-((indan-2-yl)(2-methylphenyl)amino)ethyl]piperidinium iodide]: 10 to 100 µM; `Cc1ccccc1N(CC[C@H]1CCCC[N+]1(C)C)C1Cc2ccccc2C1` [Example 35, (R)-1,1-Dimethyl-2-[2-((indan-2-yl)(2-methylphenyl)amino)ethyl]piperidinium iodide]: 10 to 100 µM.
Consider `CC[N+]1(CC)CCCC1CCN(c1ccccc1)C1Cc2ccccc2C1.[I-]` (stereo not shown) [Example 36, 1,1-diethyl-2-[2-((indan-2-yl)(phenyl)amino)ethyl]pyrrolidinium iodide], for which the “hTRPV1-N1E Nav 0.1 mM (% inhibition) 25° C.” value is given as 5.4%, the “hTRPV1-N1E Nav 0.1 mM (% inhibition) 47° C.” value was 74.0 (N = 2) % and the IC50 lay within 10 to 100 µM.
On to `C[N+]1(C)CCCCC1CCN(c1ccccn1)C1Cc2ccccc2C1.[I-]` (stereo not shown) [Example 37, 1,1-dimethyl-2-[2-((indan-2-yl)(pyridine-2-yl)amino)ethyl]piperidinium iodide], for which the “hTRPV1-N1E Nav 0.1 mM (% inhibition) 25° C.” value was 21.5%, the “hTRPV1-N1E Nav 0.1 mM (% inhibition) 47° C.” value is reported as 60.7 (N = 2) %, the “hTRPV1-N1E Nav 1 mM (% inhibition) 25° C.” value is reported as 59.5 (N = 2) % and the “hTRPV1-N1E Nav 1 mM (% inhibition) 47° C.” value is recorded as 24.0 (N = 2) %. The IC50 was in the range of 10 to 100 µM.
